Among the data in ChEMBL document CHEMBL1147583, “Respiratory syncytial virus inhibitors. Part 2: Benzimidazol-2-one derivatives” (Bioorg Med Chem Lett, 2004) are selectivity ratio, CC50 and EC50 values, retold here.

A short description of series [1]: Therapeutic index expressed as the ratio between CC50 and EC50. It is filed as cell-based. The note with it: human, HEp-2 cells; read-out: Therapeutic index.
Series [2] relates to HEp-2. Nature of the series: Cytotoxic activity against uninfected HEp-2 human […] epithelial carcinoma cell line. It is filed as functional.
In series [3] the test system is HEp-2. Nature of the series: Antiviral activity against respiratory syncytial virus in HEp-2 human […] epithelial carcinoma cell line. Type of series: functional, cell-based.

A value given as a limit tells only on which side of the number the result lay.

For orientation: CC50 means the concentration that lowers cell viability or growth by half. High values mean lower toxicity to the cells, low ones greater toxicity to the cells. The EC50 is the concentration giving half of the maximal effect. Regarding `CC(C)CCn1c(Cn2c(=O)n(Cc3ccc(C(=O)N(C)C)cc3)c3ccccc32)nc2ccccc21`, the selectivity ratio in series [1] came out at 1270. Moreover, the CC50 with HEp-2 [2] stood at 26600 nM. This compound also showed an EC50 with HEp-2 [3] of 21 nM.
`CCn1c(=O)n(Cc2nc3ccccc3n2CC(O)c2ccccc2)c2ccccc21` (stereo not given): the selectivity ratio in series [1] was over 6500. In the series on HEp-2 [2], this compound yielded a CC50 of over 241000 nM. In the series with HEp-2 [3], a half-maximal response (EC50) required 37 nM.
For the compound `CCn1c(=O)n(Cc2nc3ccccc3n2CCO)c2ccccc21`, in series [1], the selectivity ratio worked out at 279. Moreover, the half-maximal cytotoxic concentration (CC50) with HEp-2 [2] turned out to be 64100 nM. Besides, a half-maximal effect in the series on HEp-2 [3] (EC50) was put at 229 nM.
As to `CC(C)CCn1c(Cn2c(=O)n(C(=O)NCc3ccccc3)c3ccccc32)nc2ccccc21`, the selectivity ratio in series [1] came out at 74. This compound also yielded a CC50 in the series with HEp-2 [2] of 6440 nM. This compound also showed an EC50 with HEp-2 [3] of 86 nM.
For `CC(C)CCn1c(Cn2c(=O)n(Cc3ccc(C#N)cc3)c3ccccc32)nc2ccccc21` the same measures were 465, 5590 nM and 12 nM.
For `CCn1c(=O)n(Cc2nc3ccccc3n2CCCCO)c2ccccc21` the same measures were 11000, 154000 nM and 14 nM.
For `CC(C)CCn1c(Cn2c(O)nc3ccccc32)nc2ccccc21` the same measures were 1070, 61100 nM and 57 nM.
As to `CCOC(=O)n1c(=O)n(Cc2nc3ccccc3n2CCC(C)C)c2ccccc21`, the selectivity ratio in series [1] came to 193. In the series on HEp-2 [2], the CC50 is 57700 nM. The compound also yielded a half-maximal effective concentration (EC50) in the series with HEp-2 [3] of 298 nM.
Consider `N#Cc1ccc(Cn2c(=O)n(Cc3nc4ccccc4n3CCCCO)c3ccccc32)cc1`, for which the selectivity ratio in series [1] came to 739. This compound also displayed a cytotoxic concentration (CC50) in the series with HEp-2 [2] of 39200 nM. The half-maximal effective concentration (EC50) in the series with HEp-2 [3] is 53 nM.
As for `C=C(C)n1c(=O)n(Cc2nc3ccccc3n2CCCCCC#N)c2ccccc21`, the selectivity ratio in series [1] was found to be 946. For the same compound, it took 12300 nM to reach half-maximal cytotoxicity with HEp-2 [2] (CC50). The compound further came in with an EC50 with HEp-2 [3] of 13 nM.
On to `CC(=O)n1c(=O)n(Cc2nc3ccccc3n2CCC(C)C)c2ccccc21`, for which the selectivity ratio in series [1] is 162. Moreover, the midpoint of cytotoxicity in the series on HEp-2 [2], the CC50, lay at 116000 nM. The compound further came in with a half-maximal effective concentration (EC50) in the series with HEp-2 [3] of 710 nM.
For `CC1(CCn2c(Cn3c(=O)n(Cc4cc(I)c(O)c(I)c4)c4ccccc43)nc3ccccc32)N=N1`, in that order: 713, 27100 nM and 38 nM.
For `CC(C)CCn1c(Cn2c(=O)n(S(=O)(=O)N(C)C)c3ccccc32)nc2ccccc21` the same measures were 437, 27100 nM and 62 nM.
For `C=C(C)n1c(=O)n(Cc2nc3ccccc3[nH]2)c2ccccc21` the same measures were 38, 28400 nM and 750 nM.
Regarding `CC(O)CCn1c(Cn2c(O)nc3ccccc32)nc2ccccc21` (stereo not given), the selectivity ratio in series [1] was over 629. In the series on HEp-2 [2], the CC50 is over 262000 nM. This compound also showed an EC50 in the series with HEp-2 [3] of 416 nM.
